Measured values: ChEMBL document CHEMBL2413072, “Synthesis and in vitro anticancer studies of novel C-2 arylidene congeners of lantadenes” (2013)

How the values were obtained:
Format in all cases: functional
UACC-62 = test: Growth inhibition of human UACC62 cells assessed as cell growth at 10^-4 M by sulforhodamine B assay; settings: read-out: Activity
786-0 [1] = test: Growth inhibition of human 786-0 cells by sulforhodamine B assay
OVCAR-5 [2] = test: Growth inhibition of human OVCAR5 cells assessed as cell growth at 10^-8 M by sulforhodamine B assay; settings: read-out: Activity
SW-620 = test: Growth inhibition of human SW620 cells assessed as cell growth at 10^-4 M by sulforhodamine B assay; settings: read-out: Activity
MOLT-4 = test: Growth inhibition of human MOLT4 cells assessed as cell growth at 10^-7 M by sulforhodamine B assay; settings: read-out: Activity
[3] = Growth inhibition of human NCI-ADR-RES cells assessed as cell growth at 10^-4 M by sulforhodamine B assay; settings: read-out: Activity
SK-MEL-5 = test: Growth inhibition of human SK-MEL-5 cells assessed as cell growth at 10^-6 M by sulforhodamine B assay; settings: read-out: Activity
SNB-75 = test: Growth inhibition of human SNB75 cells assessed as cell growth at 10^-4 M by sulforhodamine B assay; settings: read-out: Activity
OVCAR-4 [4] = test: Growth inhibition of human OVCAR4 cells assessed as cell growth at 10^-7 M by sulforhodamine B assay; settings: read-out: Activity
786-0 [5] = test: Growth inhibition of human 786-0 cells assessed as cell growth at 10^-8 M by sulforhodamine B assay; settings: read-out: Activity
NCI-H322M = test: Growth inhibition of human NCI-H322M cells assessed as cell growth at 10^-4 M by sulforhodamine B assay; settings: read-out: Activity
CCRF-CEM = test: Growth inhibition of human CCRF-CEM cells assessed as cell growth at 10^-6 M by sulforhodamine B assay; settings: read-out: Activity
HT-29 = test: Growth inhibition of human HT-29 cells assessed as cell growth at 10^-6 M by sulforhodamine B assay; settings: read-out: Activity
UACC-257 = test: Growth inhibition of human UACC257 cells assessed as cell growth at 10^-6 M by sulforhodamine B assay; settings: read-out: Activity
MDA-MB-231 [6] = test: Growth inhibition of human MDA-MB-231 cells assessed as cell growth at 10^-4 M by sulforhodamine B assay; settings: read-out: Activity
MDA-MB-468 [7] = test: Growth inhibition of human MDA-MB-468 cells assessed as cell growth at 10^-4 M by sulforhodamine B assay; settings: read-out: Activity
BT-549 = test: Growth inhibition of human BT549 cells assessed as cell growth at 10^-8 M by sulforhodamine B assay; settings: read-out: Activity
UO-31 = test: Growth inhibition of human UO31 cells assessed as cell growth at 10^-7 M by sulforhodamine B assay; settings: read-out: Activity
[8] = Growth inhibition of human HCC2998 cells by sulforhodamine B assay
DU-145 = test: Growth inhibition of human DU145 cells assessed as cell growth at 10^-4 M by sulforhodamine B assay; settings: read-out: Activity
MDA-MB-468 [9] = test: Growth inhibition of human MDA-MB-468 cells assessed as cell growth at 10^-7 M by sulforhodamine B assay; settings: read-out: Activity
HL-60(TB) = test: Growth inhibition of human HL-60(TB) cells assessed as cell growth at 10^-7 M by sulforhodamine B assay; settings: read-out: Activity
[10] = Growth inhibition of human HCC2998 cells assessed as cell growth at 10^-4 M by sulforhodamine B assay; settings: HCC 2998, read-out: Activity
[11] = Growth inhibition of human NCI-ADR-RES cells by sulforhodamine B assay
SN12C = test: Growth inhibition of human SN12C cells assessed as cell growth at 10^-4 M by sulforhodamine B assay; settings: read-out: Activity
OVCAR-4 [12] = test: Growth inhibition of human OVCAR4 cells assessed as cell growth at 10^-8 M by sulforhodamine B assay; settings: read-out: Activity
OVCAR-5 [13] = test: Growth inhibition of human OVCAR5 cells assessed as cell growth at 10^-6 M by sulforhodamine B assay; settings: read-out: Activity
A498 [14] = test: Growth inhibition of human A498 cells by sulforhodamine B assay
SF-295 [15] = test: Growth inhibition of human SF295 cells assessed as cell growth at 10^-7 M by sulforhodamine B assay; settings: read-out: Activity
SF-268 [16] = test: Growth inhibition of human SF268 cells assessed as cell growth at 10^-4 M by sulforhodamine B assay; settings: read-out: Activity
PC-3 = test: Growth inhibition of human PC3 cells assessed as cell growth at 10^-7 M by sulforhodamine B assay; settings: read-out: Activity
SR = test: Growth inhibition of human SR cells assessed as cell growth at 10^-4 M by sulforhodamine B assay; settings: read-out: Activity
ACHN = test: Growth inhibition of human ACHN cells assessed as cell growth at 10^-4 M by sulforhodamine B assay; settings: read-out: Activity
KM12 = test: Growth inhibition of human KM12 cells assessed as cell growth at 10^-6 M by sulforhodamine B assay; settings: read-out: Activity
OVCAR-3 = test: Growth inhibition of human OVCAR3 cells assessed as cell growth at 10^-7 M by sulforhodamine B assay; settings: read-out: Activity
SF-268 [17] = test: Growth inhibition of human SF268 cells assessed as cell growth at 10^-6 M by sulforhodamine B assay; settings: read-out: Activity
SF-295 [18] = test: Growth inhibition of human SF295 cells assessed as cell growth at 10^-8 M by sulforhodamine B assay; settings: read-out: Activity
A498 [19] = test: Growth inhibition of human A498 cells assessed as cell growth at 10^-6 M by sulforhodamine B assay; settings: read-out: Activity
Malme-3M = test: Growth inhibition of human MALME-3M cells by sulforhodamine B assay
U-251 = test: Growth inhibition of human U251 cells assessed as cell growth at 10^-7 M by sulforhodamine B assay; settings: read-out: Activity
HCT-15 = test: Growth inhibition of human HCT15 cells assessed as cell growth at 10^-7 M by sulforhodamine B assay; settings: read-out: Activity
MDA-MB-231 [20] = test: Growth inhibition of human MDA-MB-231 cells by sulforhodamine B assay
[21] = read-out: LC50 (the source's name)
[22] = read-out: pLC50 (the source's name) (converted)

C/C=C(/C)C(=O)O[C@@H]1CC(C)(C)C[C@H]2C3=CC[C@@H]4[C@@]5(C)CCC(=O)C(C)(C)[C@@H]5CC[C@@]4(C)[C@]3(C)CC[C@@]12C(=O)O [LANTADENE A]
growth at 100 µM (UACC-62): -70%
GI50 (786-0 [1]; read-out: GI50): 3.47 µM
CC50 (786-0 [1]; [21]): > 100 µM
TGI (786-0 [1]; read-out: TGI): > 100 µM
GI50 (786-0 [1]; read-out: pGI50 (converted)): 3.47 µM
CC50 (786-0 [1]; [22]): > 100 µM
TGI (786-0 [1]; read-out: pTGI (converted)): > 100 µM
growth at 0.01 µM (OVCAR-5 [2]): 101%
growth at 100 µM (SW-620): 22%
growth at 0.1 µM (MOLT-4): 102%
growth at 100 µM [3]: 18%
growth at 1 µM (SK-MEL-5): 58%
growth at 100 µM (SNB-75): 33%
growth at 0.1 µM (OVCAR-4 [4]): 95%
growth at 0.01 µM (786-0 [5]): 95%
growth at 100 µM (NCI-H322M): 17%
growth at 1 µM (CCRF-CEM): 92%
growth at 1 µM (HT-29): 85%
growth at 1 µM (UACC-257): 91%
growth at 100 µM (MDA-MB-231 [6]): -26%
growth at 100 µM (MDA-MB-468 [7]): 1%
growth at 0.01 µM (BT-549): 99%
growth at 0.1 µM (UO-31): 94%
GI50 ([8]; HCC 2998, read-out: GI50): 3.33 µM
CC50 ([8]; HCC 2998, read-out: LC50 (the source's name)): > 100 µM
TGI ([8]; HCC 2998, read-out: TGI): > 100 µM
GI50 ([8]; HCC 2998, read-out: pGI50 (converted)): 3.31 µM
CC50 ([8]; HCC 2998, read-out: pLC50 (the source's name) (converted)): > 100 µM
TGI ([8]; HCC 2998, read-out: pTGI (converted)): > 100 µM
growth at 100 µM (DU-145): 29%
growth at 0.1 µM (MDA-MB-468 [9]): 83%
growth at 0.1 µM (HL-60(TB)): 96%
growth at 100 µM [10]: 2%
GI50 ([11]; read-out: GI50): 5.12 µM
CC50 [11, 21]: > 100 µM
TGI ([11]; read-out: TGI): > 100 µM
GI50 ([11]; read-out: pGI50 (converted)): 5.13 µM
CC50 [11, 22]: > 100 µM
TGI ([11]; read-out: pTGI (converted)): > 100 µM
growth at 100 µM (SN12C): 15%
growth at 0.01 µM (OVCAR-4 [12]): 95%
growth at 1 µM (OVCAR-5 [13]): 98%
GI50 (A498 [14]; read-out: GI50): 2060 nM
CC50 (A498 [14]; [21]): > 100 µM
TGI (A498 [14]; read-out: TGI): 11.6 µM
GI50 (A498 [14]; read-out: pGI50 (converted)): 2040 nM
CC50 (A498 [14]; [22]): > 100 µM
TGI (A498 [14]; read-out: pTGI (converted)): 11.7 µM
growth at 0.1 µM (SF-295 [15]): 88%
growth at 100 µM (SF-268 [16]): 34%
growth at 0.1 µM (PC-3): 83%
growth at 100 µM (SR): 12%
growth at 100 µM (ACHN): 16%
growth at 1 µM (KM12): 84%
growth at 0.1 µM (OVCAR-3): 109%
growth at 1 µM (SF-268 [17]): 98%
growth at 0.01 µM (SF-295 [18]): 96%
growth at 1 µM (A498 [19]): 72%
GI50 (Malme-3M; read-out: GI50): 7.91 µM
CC50 (Malme-3M; [21]): > 100 µM
TGI (Malme-3M; read-out: TGI): > 100 µM
GI50 (Malme-3M; read-out: pGI50 (converted)): 7.94 µM
CC50 (Malme-3M; [22]): > 100 µM
TGI (Malme-3M; read-out: pTGI (converted)): > 100 µM
growth at 0.1 µM (U-251): 94%
growth at 0.1 µM (HCT-15): 106%
GI50 (MDA-MB-231 [20]; read-out: GI50): 4.53 µM
CC50 (MDA-MB-231 [20]; [21]): > 100 µM
TGI (MDA-MB-231 [20]; read-out: TGI): 33.4 µM
GI50 (MDA-MB-231 [20]; read-out: pGI50 (converted)): 4.57 µM
CC50 (MDA-MB-231 [20]; [22]): > 100 µM
TGI (MDA-MB-231 [20]; read-out: pTGI (converted)): 33.1 µM
